What all share (format): physicochemical
One series can be described thus: solubility to water. The conditions noted are these: 25° C.
Series [1] is described as follows: pH of 5% aqueous solution.
Series [2] in a line: stability in the atmospheric condition and in aqueous solution.

Each structure is given as a SMILES string. Entries after “also recorded” stand apart in the source; their conditions may differ. Like-named read-outs stand apart in the source and are kept apart here.

On to `O=C([O-])CN(CCN1CCN2CC(=O)[O][Ru]([O]C(=O)C1)[O]C(=O)C2)CC(=O)[O-]` [diammonium ruthenium diethylenetriaminepentaacetate], for which the solubility to water in the series “solubility to water” is 53 mass %. The solubility in the series “solubility to water” (crystals of Example 1) is given as 53%. The “pH of 5% aqueous solution” value in series [1] turned out to be 5.1; in series [1] (listed as DTPA.Ru(III).(NH4)2.2H2O) it was 5.10. The “precipitation in aqueous solution on change of pH” value in series [2] (acid or alkali added into the aqueous solution to change pH) is recorded as “does not precipitate; also recorded: without precipitating”. Further, the “storage stability (decomposition or transformation)” value in series [2] (in the atmospheric condition and in the aqueous solution) is reported as “can be stably preserved; also recorded: not decomposed”.

These data come from patent publication US6548688B1, “Diammonium ruthenium diethylenethriaminepentaacetate or hydrates thereof and process for the preparation of both” (Chubu Chelest Co., Ltd., priority 1999, dated 2003).
